“And” between values parts separate entries of the source, which are not always exact repeats. Equal values may be shown once.
Key:
[1] = In vitro stability in 0.1 M PBS (pH 7.4); assay type: physicochemical; conditions: 24 h incubation at 37 °C, purity by TLC
Procedure: The stability of [^77Br]2 and [^77Br]3 in 0.1 M phosphate-buffered saline (PBS) (pH 7.4) was high (93.6 ± 0.9% and 93.0 ± 0.6%, respectively). There was no significant decomposition after 24 h incubation at 37 °C for either radiotracer.
The stability of radiolabeled compounds, [^77Br]2 and [^77Br]3, were analyzed as described previously. The purities radiolabeled compounds were determined by TLC using chloroform/methanol = 5/1 and 20/1 as a developing solvent for [^77Br]2 and [^77Br]3, respectively. The results were confirmed by RP-HPLC.

BxPC3-luc cells = assay: In vitro blocking study; assay type: cell-based; conditions: inhibitor 1, 2 or 3 at 10 µM, 10 min pretreatment
Procedure: Blocking studies using 1, 2, and 3 were performed (Fig. 6). Pretreatment of an excess amount of 1 or 2 decreased uptakes of [^77Br]2 in BxPC3-luc cells. The uptake of [^77Br]3 was inhibited by a pretreatment using 1 or 3 in the same way.
Figure 6 In vitro blocking studies of (a) [^77Br]2 and (b) [^77Br]3 in BxPC3-luc and MCF7 cells. Data were presented as mean ± SD for three samples. Significance was determined using a one-way ANOVA followed by Dunnett’s post hoc test (^*p < 0.001, vs control [^77Br]2 or [^77Br]3).
For in vitro blocking experiment, inhibitor (1, 2, or 3 with final concentration 10 µM) in 1 mL of medium without FBS was added to wells containing 2 × 10^5 cells/well. After 10 min incubation, [^77Br]2 or [^77Br]3 (3.7 kBq/well) in 1 mL of medium without FBS was added to each well. Radioactivity and protein concentration in the cells were determined by the same method above-mentioned.

[2] = Biodistribution in ddY mice; assay type: in vivo; conditions: i.v. co-injection
Outline: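 ddY mice got a 100 µL tail-vein injection of [^77Br]2 with [^125I]4, or [^77Br]3 with [^125I]5 (74 kBq each), in saline containing 10% ethanol and 1% tween-80. Animals were killed at 10 min, 1, 4 and 24 h; tumor-bearing mice were killed at 1 h. Resected tissues were weighed and gamma-counted with background correction, and values are %ID/g.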

BxPC3-luc tumor = assay: Biodistribution in BxPC3-luc tumor-bearing mice; assay type: in vivo, BALB/c nu/nu mice; conditions: i.v. co-injection, 1 h
Outline: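 BALB/c nu/nu mice bearing subcutaneous BxPC3-luc tumours received 74 kBq each of co-injected ^77Br and ^125I tracers i.v. in saline with 10% ethanol, 1% tween-80. Sacrificed 1 h postinjection; tissues weighed and gamma-counted. Values are %ID/g.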

Stability in 0.1 M PBS (pH 7.4) [1]: 93.0 ± 0.6%
Radioactivity in Blood ([2]; 10 min): 1.68 (0.07) %injected dose/gram tissue
Radioactivity in Bone ([2]; 10 min): 1.88 (0.15) %injected dose/gram tissue
Radioactivity in Brain ([2]; 10 min): 0.43 (0.02) %injected dose/gram tissue
Radioactivity in Heart ([2]; 10 min): 2.70 (0.24) %injected dose/gram tissue
Radioactivity in Kidney ([2]; 10 min): 5.21 (0.53) %injected dose/gram tissue
Radioactivity in Large intestine ([2]; 10 min): 0.88 (0.08) %injected dose/gram tissue
Radioactivity in Liver ([2]; 10 min): 25.80 (2.54) %injected dose/gram tissue
Radioactivity in Lung ([2]; 10 min): 3.08 (0.65) %injected dose/gram tissue
Radioactivity in Muscle ([2]; 10 min): 1.28 (0.19) %injected dose/gram tissue
Radioactivity in Pancreas ([2]; 10 min): 2.61 (0.20) %injected dose/gram tissue
Radioactivity in Small intestine ([2]; 10 min): 3.28 (0.32) %injected dose/gram tissue
Radioactivity in Spleen ([2]; 10 min): 3.05 (1.14) %injected dose/gram tissue
Radioactivity in Stomach ([2]; 10 min): 1.31 (0.22) %injected dose /organ
Radioactivity in Blood ([2]; 1 h): 0.65 (0.05) %injected dose/gram tissue
Radioactivity in Bone ([2]; 1 h): 1.60 (0.27) %injected dose/gram tissue
Radioactivity in Brain ([2]; 1 h): 0.22 (0.05) %injected dose/gram tissue
Radioactivity in Heart ([2]; 1 h): 1.14 (0.09) %injected dose/gram tissue
Radioactivity in Kidney ([2]; 1 h): 2.03 (0.33) %injected dose/gram tissue
Radioactivity in Large intestine ([2]; 1 h): 2.23 (0.75) %injected dose/gram tissue
Radioactivity in Liver ([2]; 1 h): 7.59 (0.76) %injected dose/gram tissue
Radioactivity in Lung ([2]; 1 h): 1.18 (0.10) %injected dose/gram tissue
Radioactivity in Muscle ([2]; 1 h): 0.91 (0.45) %injected dose/gram tissue
Radioactivity in Pancreas ([2]; 1 h): 1.24 (0.16) %injected dose/gram tissue
Radioactivity in Small intestine ([2]; 1 h): 14.30 (0.23) %injected dose/gram tissue
Radioactivity in Spleen ([2]; 1 h): 1.47 (0.20) %injected dose/gram tissue
Radioactivity in Stomach ([2]; 1 h): 1.10 (0.24) %injected dose /organ
Radioactivity in Blood ([2]; 4 h): 0.25 (0.04) %injected dose/gram tissue
Radioactivity in Bone ([2]; 4 h): 1.32 (0.12) %injected dose/gram tissue
Radioactivity in Brain ([2]; 4 h): 0.19 (0.01) %injected dose/gram tissue
Radioactivity in Heart ([2]; 4 h): 0.65 (0.05) %injected dose/gram tissue
Radioactivity in Kidney ([2]; 4 h): 0.65 (0.15) %injected dose/gram tissue
Radioactivity in Large intestine ([2]; 4 h): 28.99 (2.21) %injected dose/gram tissue
Radioactivity in Liver ([2]; 4 h): 2.19 (1.38) %injected dose/gram tissue
Radioactivity in Lung ([2]; 4 h): 0.45 (0.07) %injected dose/gram tissue
Radioactivity in Muscle ([2]; 4 h): 0.57 (0.24) %injected dose/gram tissue
Radioactivity in Pancreas ([2]; 4 h): 0.68 (0.10) %injected dose/gram tissue
Radioactivity in Small intestine ([2]; 4 h): 4.50 (2.02) %injected dose/gram tissue
Radioactivity in Spleen ([2]; 4 h): 0.88 (0.08) %injected dose/gram tissue
Radioactivity in Stomach ([2]; 4 h): 0.59 (0.26) %injected dose /organ
Radioactivity in Blood ([2]; 24 h): 0.39 (0.05) %injected dose/gram tissue
Radioactivity in Bone ([2]; 24 h): 1.32 (0.17) %injected dose/gram tissue
Radioactivity in Brain ([2]; 24 h): 0.20 (0.02) %injected dose/gram tissue
Radioactivity in Heart ([2]; 24 h): 0.72 (0.11) %injected dose/gram tissue
Radioactivity in Kidney ([2]; 24 h): 0.37 (0.05) %injected dose/gram tissue
Radioactivity in Large intestine ([2]; 24 h): 0.18 (0.00) %injected dose/gram tissue
Radioactivity in Liver ([2]; 24 h): 0.18 (0.04) %injected dose/gram tissue
Radioactivity in Lung ([2]; 24 h): 0.56 (0.07) %injected dose/gram tissue
Radioactivity in Muscle ([2]; 24 h): 0.54 (0.04) %injected dose/gram tissue
Radioactivity in Pancreas ([2]; 24 h): 0.68 (0.03) %injected dose/gram tissue
Radioactivity in Small intestine ([2]; 24 h): 0.18 (0.05) %injected dose/gram tissue
Radioactivity in Spleen ([2]; 24 h): 0.72 (0.24) %injected dose/gram tissue
Radioactivity in Stomach ([2]; 24 h): 0.35 (0.06) %injected dose /organ
Radioactivity in Stomach (BxPC3-luc tumor): 0.67 (0.14) %injected dose /organ
Compound: COCCOc1ccc2c(c1)ncn2-c1ccc2cccc(N3CCC(NC(=O)c4cccc([77Br])c4)CC3)c2n1 [[^77Br]3, [^77Br]-N-3-bromobenzoyl-1-{2-[5-(2-methoxyethoxy)-1H-benzo[d]imidazol-1-yl]quinolin-8-yl}-piperidin-4-amine]
Uptake in BxPC3-luc cells after pretreatment with excess inhibitor (BxPC3-luc cells): inhibited
Radioactivity in Blood (BxPC3-luc tumor): 1.16 (0.02) %injected dose/gram of tissue
Radioactivity in Bone (BxPC3-luc tumor): 1.32 (0.08) %injected dose/gram of tissue
Radioactivity in Brain (BxPC3-luc tumor): 0.17 (0.02) %injected dose/gram of tissue
Radioactivity in BxPC3-luc tumor (BxPC3-luc tumor): 1.15 %injected dose/gram of tissue and 1.15 (0.35) %injected dose/gram of tissue
Radioactivity in Heart (BxPC3-luc tumor): 1.83 (0.04) %injected dose/gram of tissue
Radioactivity in Kidney (BxPC3-luc tumor): 5.95 (0.16) %injected dose/gram of tissue
Radioactivity in Large intestine (BxPC3-luc tumor): 5.53 (0.96) %injected dose/gram of tissue
Radioactivity in Liver (BxPC3-luc tumor): 19.82 (2.48) %injected dose/gram of tissue
Radioactivity in Lung (BxPC3-luc tumor): 3.02 (0.51) %injected dose/gram of tissue
Radioactivity in Muscle (BxPC3-luc tumor): 1.05 (0.18) %injected dose/gram of tissue
Radioactivity in Pancreas (BxPC3-luc tumor): 2.15 (0.13) %injected dose/gram of tissue
Radioactivity in Small intestine (BxPC3-luc tumor): 32.72 (3.10) %injected dose/gram of tissue
Radioactivity in Spleen (BxPC3-luc tumor): 2.51 (0.17) %injected dose/gram of tissue

Reference: publication PMC6039436, “Radiobrominated benzimidazole-quinoline derivatives as Platelet-derived growth factor receptor beta (PDGFRβ) imaging probes” (Scientific Reports, 2018)
